Measurements from paper PMC4783772, “PEGylated substrates of NSP4 protease: A tool to study protease specificity” (Scientific Reports, 2016).
Read-outs that look alike come from different tables or passages of the source. Square brackets hold non-standard residues; d marks the D form. Side chains are listed from the residue outwards. Peptide text beside a SMILES is read from it. * marks the point of attachment. 2Abz = Nc1ccccc1C(=O)O; Cbz = O=C(OCc1ccccc1)*; Dap = NC[C@H](N)C(=O)O; X1 = N=C(N)NCCOCC(=O)*; AEEA = NCCOCCOCC(=O)O

Tests used:
[1] = tested on: hNSP4; test: Proteolytic cleavage pattern / stability with hNSP4 by HPLC; type: biochemical, human; conditions: hNSP4 14 nM, RP-HPLC; for stability of the cleaved fluorescent fragment with hNSP4: up to 48 h
Procedure: Figure 4 HPLC analysis of substrate 1 (1.97 μM) incubated with hNSP4 (14 nM) at different time points: 0, 15 min, 24 h and 48 h.
For each sample of diluted substrate (concentrations 1.97 × 10^−6 M), the appropriate amount of enzyme (1.46 × 10^−8 M) was added, and the solution was incubated for 5, 30, and 60 min. The progress of the proteolytic reaction was monitored by RP-HPLC. The individual peaks resulting from the hydrolysis reaction were collected and identified using the mass spectra which were recorded on a Biflex III MALDI TOF mass spectrometer (Bruker Daltonics, Germany) using α-cyano-4-hydroxycinnamic acid as a matrix.

[2] = target: T1, human NSP4 (Homo sapiens, UniProt Q6UWY2); test: Iterative deconvolution in solution of library ABZ-X4-X3-X2-Arg-ANB-NH2 against NSP4; type: biochemical; conditions: ABZ-Dap(O2(Cbz))-Dap(Cbz)-X2-Arg-ANB-NH2, 18 individual peptides; 3.4 × 10^−5 M, NSP4 1.46 × 10^−8 M (Figure 3); pH 7.4, 37 °C, 30 min; fluorescence
T1 construct: made in house; host or cells: Pichia pastoris
Procedure: In order to construct a novel type of internally quenched library, we used different monoprotected heterobifunctional PEG moieties to diversify a library based on a diaminopropionic acid scaffold (Fig. 1 presents the library formula and its chemical components). The library was synthesized using the mix and split method via Fmoc chemistry. The formation of Dap-PEG conjugates was performed on resin via a submonomeric method (one example of DAPEG-based molecule synthesis is presented in Fig. 2). Our goal was to investigate P2, P3, and P4 subsite preferences with a fixed P1 position occupied by an Arg residue. Each peptide in the library was flanked by a C-terminal amide of 5-amino-2-nitrobenozic acid (acceptor of fluorescence) and an N-terminal 2-amino benzoic acid (fluorescence donor) pair which allowed for simultaneous UV and fluorescence monitoring. Screening process was performed using an iterative mode of deconvolution in solution.
Figure 3 The deconvolution of the library (at average concentration 3.4 × 10^−5 M) with general formula ABZ-X4-X3-X2-Arg-ANB-NH2 against NSP4 (1.46 × 10^−8 M).
For the enzymatic studies, we used human NSP4 expressed in a Pichia pastoris expression system as described in ref. [15]. […] The fluorescence tests were performed using a FluoroStar OMEGA fluorescent microplate reader (BMG, Germany). […]

[3] = tested on: hNSP4; test: Detection limit of hNSP4 with substrate 1; type: biochemical, human
Procedure: The incubation of substrate 1 with decreasing amounts of hNSP4 yielded a visible fluorescence (signal-to-noise ratio of 3:1) at 10^−11 M of the studied enzyme (Fig. S8).
(§1) For the enzymatic studies, we used human NSP4 expressed in a Pichia pastoris expression system as described in ref. [15]. The NSP4 concentration used in the deconvolution of the library was […]. The bovine β-trypsin (Sigma Chem. Co., USA) concentration was determined by spectrophotometric titration with 4-nitrophenyl-4′-guanidinobenzoate (NPGB) at an enzyme concentration oscillating around 10^−6 M. Standardized trypsin solution was used to titrate BPTI (Sigma Chem. Co., USA) which in turn served to determine the solution concentrations of the produced NSP4. The substrate ABZ-Met-Phe-Pro-Arg-ANB-NH2 recently developed in our lab was used. The deconvolution of peptide libraries was carried out by the iterative solution method. The lyophilizates obtained for each sublibrary were dissolved in dimethyl sulfoxide (DMSO) to a final concentration of 5 mg/ml, and then diluted tenfold in an assay buffer. The fluorescence tests were performed using a FluoroStar OMEGA fluorescent microplate reader (BMG, Germany). The excitation and emission wavelengths were 320 nm and 410 nm for the ABZ/ANB. […]

[4] = tested on: NSP4; test: NSP4-mediated proteolysis of substrate 1 in the selectivity panel; type: biochemical, human; conditions: substrate 1 1.97 μM; Figure 5
Procedure: (§2) Figure 5 Incubation of substrate 1 (1.97 μM) with (A) neutrophil serine proteases (cathepsin G, elastase, and proteinase 3) at a concentration of 8.7 nM; (B) set of blood-associated proteases involving cathepsins and kallikreins.
as §1

[5] = tested on: set of proteases related to blood cells, including cathepsins and kallikreins; test: Selectivity: set of blood-associated proteases (cathepsins and kallikreins); type: biochemical; conditions: substrate 1.97 μM, enzymes 10^−8 M, Figure 5B, pH 7.4, 37 °C, 30 min
Procedure: as §2, §1

[6] = target: T1, human NSP4; test: Determination of kinetic parameters (KM, kcat, kcat/KM) of substrate hydrolysis by NSP4; type: biochemical; conditions: for kcat/KM: calculated from kcat and KM values
Procedure: For the enzymatic studies, we used human NSP4 expressed in a Pichia pastoris expression system as described in ref. [15]. The NSP4 concentration used in the deconvolution of the library was […]. The bovine β-trypsin (Sigma Chem. Co., USA) concentration was determined by spectrophotometric titration with 4-nitrophenyl-4′-guanidinobenzoate (NPGB) at an enzyme concentration oscillating around 10^−6 M. Standardized trypsin solution was used to titrate BPTI (Sigma Chem. Co., USA) which in turn served to determine the solution concentrations of the produced NSP4. The substrate ABZ-Met-Phe-Pro-Arg-ANB-NH2 recently developed in our lab was used. The deconvolution of peptide libraries was carried out by the iterative solution method. The lyophilizates obtained for each sublibrary were dissolved in dimethyl sulfoxide (DMSO) to a final concentration of 5 mg/ml, and then diluted tenfold in an assay buffer. The fluorescence tests were performed using a FluoroStar OMEGA fluorescent microplate reader (BMG, Germany). The excitation and emission wavelengths were 320 nm and 410 nm for the ABZ/ANB. Enzymatic hydrolysis of the peptide was performed in 20 mM Tris-Cl buffer supplemented by 150 mM NaCl (pH 7.4) at 37 °C and continued over 30 min.
Assay conditions for the determination of the Michaelis constants (KM) and catalytic constants (kcat) were as noted above. The specificity constants (kcat/KM) were calculated from kcat and KM values. Measurements were performed with an enzyme concentration of 1.46 × 10^−9 M. Three to five measurements were carried out for each compound (systematic error expressed as a standard deviation never exceeded 20%). The calculated initial hydrolysis rates were used as a measure of the substrate activity of the investigated peptides. All details of kinetic studies and the method of calculating kinetic parameters have been described elsewhere.

[7] = tested on: KLK14; test: Selectivity: incubation with KLK14; type: biochemical, human; conditions: substrate 1.97 μM; Figure 5B; pH 7.4, 37 °C, 30 min
Procedure: as §2, §1

[8] = tested on: proteinase 3 (PR3); test: Selectivity: incubation with proteinase 3; type: biochemical, human; conditions: substrate 1.97 μM; PR3 10^−8 M, 8.7 nM (Figure 5A legend); pH 7.4, 37 °C, 30 min
Procedure: as §2, §1

[9] = tested on: cathepsin G (CatG); test: Selectivity: incubation with cathepsin G; type: biochemical, human; conditions: substrate 1.97 μM; CatG 10^−8 M, 8.7 nM (Figure 5A legend); pH 7.4, 37 °C, 30 min
Procedure: as §2, §1

[10] = qualitative statement
[11] = tested on: human neutrophil elastase (HNE); test: Selectivity: incubation with neutrophil elastase; type: biochemical; conditions: substrate 1.97 μM; HNE 10^−8 M, 8.7 nM (Figure 5A legend); pH 7.4, 37 °C, 30 min
Procedure: as §2, §1

[12] = tested on: NSP4; conditions: cited from earlier work
Source text: Table 2 Kinetic parameters of reported artificial substrates of NSP4. | column: kcat [s^−1]; KM [μM]; kcat/KM M^−1 × s^−1

[13] = 20 mM Tris-Cl, 150 mM NaCl, pH 7.4, 37 °C, NSP4 1.46 × 10^−9 M, fluorescence ex 320 / em 410 nm, three to five measurements, SD never exceeded 20%

T1 sequence (Q6UWY2 32-283): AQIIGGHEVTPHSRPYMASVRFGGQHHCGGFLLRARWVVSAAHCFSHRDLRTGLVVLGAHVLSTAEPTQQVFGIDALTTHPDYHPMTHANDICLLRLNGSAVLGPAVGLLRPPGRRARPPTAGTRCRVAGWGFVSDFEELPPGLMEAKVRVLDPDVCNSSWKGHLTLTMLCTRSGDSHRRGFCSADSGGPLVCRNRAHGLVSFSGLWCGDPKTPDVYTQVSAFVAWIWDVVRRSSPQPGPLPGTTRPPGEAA

With `N=C(N)NCCC[C@H](NC(=O)[C@H](CNC(=O)COCCNC(=N)N)NC(=O)[C@H](CNC(=O)OCc1ccccc1)NC(=O)[C@H](CNC(=O)COCCOCCNC(=O)OCc1ccccc1)NC(=O)c1ccccc1N)C(=O)O` [ABZ-Dap(O2(Cbz))-Dap(Cbz)-Dap(GO1)-Arg-OH] (H-[2Abz][Dap]([AEEA-Cbz])[Dap](Cbz)[Dap](X1)R-OH) the “stability of the cleaved fluorescent fragment with hNSP4” value [1] was “no further degraded up to 48 h” and the “stability of the cleaved fluorescent fragment with hNSP4” value ([1]; listed as cleaved N-terminal fragment of the peptidomimetic chain) was “exceptional proteolytic stability”.
With “ABZ-Dap(O2(Cbz))-Dap(Cbz)-Dap(GO1)-Arg-ANB-NH2 [substrate 1, internally quenched peptidomimetic substrate of NSP4]” the “proteolysis / fluorescent intensity, peptides modified at X2” value [2] was “most susceptible for NSP4-mediated proteolysis”, the “cleavage site by hNSP4” value ([1]; substrate 1 1.97 μM, 0, 15 min, 24 h, 48 h, MS identification) was “cleavage of the peptide bond located between Arg and ANB-NH2” and the “detection limit in words” value ([3]; NSP4 detection with substrate 1) was “subnanomolar”. The “detection limit (hNSP4 concentration giving visible fluorescence)” value ([3]; signal-to-noise ratio of 3:1, constant amount of substrate 1, decreasing amounts of hNSP4, Fig. S8) was 10^−11 M, the “susceptibility to NSP4-mediated proteolysis” value [4] was “susceptible to NSP4-mediated proteolysis” and the “cleavage by other blood-associated proteases” value [5] was “No other proteolytic enzyme at a concentration of 10^−8 M was able to cleave any of the peptide bonds”. It also gave a Km [6, 13] of 7.6 ± 0.5 µM, a kcat [6, 13] of 1 s⁻¹ and a kcat ([6]; 20 mM Tris-Cl, 150 mM NaCl, pH 7.4, 37 °C, NSP4 1.46 × 10^−9 M, fluorescence ex 320 / em 410 nm, three to five measurements, SD never exceeded 20%, listed as ABZ-Dap(O2(Cbz))-Dap(Cbz)-Dap(GO1)-Arg-ANB-NH2) of 1.0 ± 0.1 s⁻¹. The kcat/KM ([6]; pH 7.4, 37 °C, NSP4 1.46 × 10^−9 M) was 130000 M⁻¹ s⁻¹, the kcat/KM ([6]; pH 7.4, 37 °C, NSP4 1.46 × 10^−9 M, listed as ABZ-Dap(O2(Cbz))-Dap(Cbz)-Dap(GO1)-Arg-ANB-NH2) was 131,579 M^−1 × s^−1 and the kcat/KM ([6]; pH 7.4, 37 °C, NSP4 1.46 × 10^−9 M, listed as the developed compound) was “over 1.31 × 10^5 M^−1 × s^−1”. For the same compound, the “specificity (kcat/KM) relative to substrate selected by Kasperkiewicz et al. [19]” value ([6]; comparison with literature substrate, Kasperkiewicz et al.[19]) was 4 times higher, the “degradation by KLK14 compared with NSP4” value [7] was “to a much lesser extend to degradation by KLK14” and the “proteolysis by PR3” value [8] was “no visible proteolysis”. For the same compound, the “proteolysis by CatG” value [9] was “no visible proteolysis”, the solubility in water [10] was “excellent solubility in water” and the “proteolysis by HNE” value [11] was “no visible proteolysis”.
In the case of Ac-hCha-Phe(4-guanidine)-Oic-Arg-ACC, the Km ([12]; ref [19]) is given as 61 ± 9.1 µM, the kcat ([12]; ref [19]) is given as 2.0 ± 0.5 s⁻¹ and the kcat/KM ([12]; ref [19]) is given as 32,786 M^−1 × s^−1.
In the case of “MCA-PEG-Ile-Arg-Arg-Ser-Ser-Tyr-Ser-Phe-Lys(Dnp)-Lys”, the Km ([12]; ref [18]) is given as 13.8 ± 3.3 µM, the kcat ([12]; ref [18]) is given as 0.136 ± 0.008 s⁻¹ and the kcat/KM ([12]; ref [18]) is given as 10,000 M^−1 × s^−1.
